PubChem BioAssay AID212 (DTP/NCI, 2004)
Values joined by “and” are separate entries in the source; they are usually repeats but may differ in a detail not shown here. Equal entries are not always repeated. Results filed as inconclusive are left out.

System: BDF1 mice, colon carcinoma 38 sc, T/C %
Experiment: NCI In Vivo Anticancer Drug Screen. Data for tumor model Colon Carcinoma 38 (subcutaneous) in B6D2F1 (BDF1) mice
Details: endpoint: median tumor weight (est.), higher = larger tumour
Procedure, shortened: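 Transplantable tumor in mice; compound-treated vs vehicle-dosed controls. Measured survival or tumor size; value = T ÷ C.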

[1] = dose: 4.0 mg/kg/injection, schedule: Q07DX002 (ip), vehicle: saline
[2] = dose: 8.0 mg/kg/injection, schedule: Q07DX002 (ip), vehicle: saline
[3] = dose: 16.0 mg/kg/injection, schedule: Q07DX002 (ip), vehicle: saline
[4] = dose: 25.0 mg/kg/injection, schedule: Q07DX002 (ip), vehicle: saline with Tween-80
[5] = dose: 50.0 mg/kg/injection, schedule: Q07DX002 (ip), vehicle: saline with Tween-80
[6] = dose: 100.0 mg/kg/injection, schedule: Q07DX002 (ip), vehicle: saline with Tween-80

## O=C1CC2(C(=O)N1CN1CCCCC1)c1ccccc1-c1ccccc12
dose: 12.5 mg/kg/injection, schedule: Q07DX002 (ip), vehicle: Klucel (hydroxypropylcellulose) (HPC)
  T/C: 58 % of control
dose: 25.0 mg/kg/injection, schedule: Q07DX002 (ip), vehicle: Klucel (hydroxypropylcellulose) (HPC)
  T/C: 97 % of control
dose: 50.0 mg/kg/injection, schedule: Q07DX002 (ip), vehicle: Klucel (hydroxypropylcellulose) (HPC)
  T/C: 68 % of control
dose: 100.0 mg/kg/injection, schedule: Q07DX002 (ip), vehicle: Klucel (hydroxypropylcellulose) (HPC)
  T/C: 102 % of control
dose: 200.0 mg/kg/injection, schedule: Q07DX002 (ip), vehicle: Klucel (hydroxypropylcellulose) (HPC)
  T/C: 101 % of control
dose: 400.0 mg/kg/injection, schedule: Q07DX002 (ip), vehicle: Klucel (hydroxypropylcellulose) (HPC)
  T/C: 81 % of control

## COc1cc([C@@H]2c3cc4c(c(O)c3C[C@H]3COC(=O)[C@@H]32)OCO4)cc(OC)c1OC
dose: 1.0 mg/kg/injection, schedule: Q07DX002 (ip), vehicle: saline
  T/C: 81 % of control
dose: 2.0 mg/kg/injection, schedule: Q07DX002 (ip), vehicle: saline
  T/C: 67 % of control
[1]
  T/C: 76 % of control
[2]
  T/C: 73 % of control
[3]
  T/C: 70 % of control

## COc1ccc(C(N)=O)cc1N=NN(C)C
dose: 6.25 mg/kg/injection, schedule: Q07DX003 (ip), vehicle: Klucel (hydroxypropylcellulose) (HPC)
  T/C: 97 % of control
dose: 12.5 mg/kg/injection, schedule: Q07DX003 (ip), vehicle: Klucel (hydroxypropylcellulose) (HPC)
  T/C: 111 % of control
dose: 25.0 mg/kg/injection, schedule: Q07DX003 (ip), vehicle: Klucel (hydroxypropylcellulose) (HPC)
  T/C: 89 % of control
dose: 50.0 mg/kg/injection, schedule: Q07DX003 (ip), vehicle: Klucel (hydroxypropylcellulose) (HPC)
  T/C: 66 % of control
dose: 100.0 mg/kg/injection, schedule: Q07DX003 (ip), vehicle: Klucel (hydroxypropylcellulose) (HPC)
  T/C: 15 % of control

## CC1=C(O)C(=O)[C@@H]2O[C@@H]2C1=O
dose: 3.12 mg/kg/injection, schedule: Q07DX002 (ip), vehicle: saline
  T/C: 90 % of control
dose: 6.25 mg/kg/injection, schedule: Q07DX002 (ip), vehicle: saline
  T/C: 106 % of control
dose: 12.5 mg/kg/injection, schedule: Q07DX002 (ip), vehicle: saline
  T/C: 71 % of control

## Nc1ccc(C(=O)O)c(O)c1
dose: 42.0 mg/kg/injection, schedule: Q07DX002 (ip), vehicle: saline with Tween-80
  T/C: 120 % of control
dose: 84.0 mg/kg/injection, schedule: Q07DX002 (ip), vehicle: saline with Tween-80
  T/C: 89 % of control
dose: 168.0 mg/kg/injection, schedule: Q07DX002 (ip), vehicle: saline with Tween-80
  T/C: 93 % of control
dose: 337.0 mg/kg/injection, schedule: Q07DX002 (ip), vehicle: saline with Tween-80
  T/C: 80 % of control
dose: 675.0 mg/kg/injection, schedule: Q07DX002 (ip), vehicle: saline with Tween-80
  T/C: 111 % of control

## CCN(CC)CCNc1ccc(C)c2sc3ccc(O)cc3c(=O)c12
[4]
  T/C: 92 % of control
[5]
  T/C: 74 % of control
[6]
  T/C: 68 % of control
dose: 200.0 mg/kg/injection, schedule: Q07DX002 (ip), vehicle: saline with Tween-80
  T/C: 33 % of control

## Nc1nc([Se])c2ncn(C3OC(CO)C(O)C3O)c2n1 (stereo not given)
[1]
  T/C: 23 % of control
dose: 4.0 mg/kg/injection, schedule: Q07DX002 (ip), vehicle: suspension in saline
  T/C: 124 % of control
dose: 4.0 mg/kg/injection, schedule: Q07DX003 (ip), vehicle: saline
  T/C: 170 % of control
[2]
  T/C: 14 % of control
dose: 8.0 mg/kg/injection, schedule: Q07DX002 (ip), vehicle: suspension in saline
  T/C: 112 % of control and 94 % of control
dose: 8.0 mg/kg/injection, schedule: Q07DX003 (ip), vehicle: saline
  T/C: 93 % of control
[3]
  T/C: 20 % of control
dose: 16.0 mg/kg/injection, schedule: Q07DX002 (ip), vehicle: suspension in saline
  T/C: 83 % of control and 86 % of control
dose: 16.0 mg/kg/injection, schedule: Q07DX003 (ip), vehicle: saline
  T/C: 113 % of control
dose: 32.0 mg/kg/injection, schedule: Q07DX002 (ip), vehicle: saline
  T/C: 18 % of control
dose: 32.0 mg/kg/injection, schedule: Q07DX003 (ip), vehicle: saline
  T/C: 92 % of control
dose: 64.0 mg/kg/injection, schedule: Q07DX002 (ip), vehicle: saline
  T/C: 20 % of control
dose: 64.0 mg/kg/injection, schedule: Q07DX002 (ip), vehicle: suspension in saline
  T/C: 71 % of control and 92 % of control
dose: 64.0 mg/kg/injection, schedule: Q07DX003 (ip), vehicle: saline
  T/C: 41 % of control

## CCC1OC(OC)C=CC1=O (stereo not given)
[4]
  T/C: 92 % of control
[5]
  T/C: 73 % of control
[6]
  T/C: 73 % of control
